Laboratory results published in patent US20220378923A1, “BET DEGRADER” (KYOWA KIRIN CO., LTD., priority 2019, published 2022).
Like-named read-outs stand apart in the source and are kept apart here.

Tests used:
[1] = tested on: MYC mRNA expression in SU-DHL-4 cells; test: Suppressive effect on MYC mRNA expression (Test Example 2); format: cell-based, human; details: test compound 100 nmol/L, 6 hours, qRT-PCR corrected by ACTB, GAPDH; for inhibition at 0.1 µM: Homo sapiens, HPRT1, read-out: Suppression Rate of MYC mRNA Expression (%); for Suppression Rate of MYC mRNA Expression (%): HPRT1
Summary of the method: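 SU-DHL-4 cells were treated for 6 h at 37 °C with compound (0.1% DMSO final). MYC mRNA was measured by TaqMan qRT-PCR and normalised to the geometric mean of ACTB, GAPDH and HPRT1. Suppression was calculated relative to untreated wells.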

SU-DHL-4 cells = test: Inhibitory effect on cell viability in SU-DHL-4 cell line (Test Example 1); format: cell-based, human; details: 72 hours; for IC50: SU-DHL-4 (wild type) cells, calculated using the measurement results of test example 1, read-out: SU-DHL-4 WT IC50; for IC90: SU-DHL-4 cells, Cell Counting Kit-8, concentration showing 90% inhibition of cell viability, read-out: SU-DHL-4 Cell Viability Inhibition Rate IC90
Summary of the method: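 SU-DHL-4 cells were grown at 37° C. under 5% CO2 in RPMI1640 with 10 vol % heat-inactivated FBS plus penicillin/streptomycin, seeded and precultured for 18 to 25 hours, then exposed to test compound at 0.1 vol % DMSO for 72 hours. Viability was read with Cell Counting Kit-8 by absorbance at 450 nm.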

SMILES | inhibition at 0.1 µM [1] [%] | IC50 (SU-DHL-4 cells; Homo sapiens) [nM] | Suppression Rate of MYC mRNA Expression (%) [1] [%] | IC50 (SU-DHL-4 cells) [nM] | IC90 (SU-DHL-4 cells) [nM] | IC90 (SU-DHL-4 cells; Homo sapiens) [nM]
CCC(=O)N1c2ccccc2[C@H](Nc2ccc(NC(=O)CNC(=O)Nc3ccc(C4=NCc5nnc(C)n5-c5sc(C)c(C)c54)cc3)cc2)C[C@@H]1C [Compound 14f, N-(4-(((2S,4R)-2-Methyl-1-propionyl-1,2,3,4-tetrahydroquinolin-4-yl)amino)phenyl)-2-(3-(4-(2,3,9-trimethyl-6H-thieno[3,2-f][1,2,4]triazolo[4,3-a][1,4]diazepin-4-yl)phenyl)ureido)acetamide] | 97.3 | 0.14 | – | – | – | –
Cc1sc2c(c1C)C(c1ccc(C(=O)N3CCC(NC(=O)c4ccc(C5=N[C@@H](CC(=O)OC(C)(C)C)c6nnc(C)n6-c6sc(C)c(C)c65)cc4)CC3)cc1)=NCc1nnc(C)n1-2 [Compound 14p, tert-Butyl (S)-2-(2,3,9-trimethyl-4-(4-((1-(4-(2,3,9-trimethyl-6H-thieno[3,2-f][1,2,4]triazolo[4,3-a][1,4]diazepin-4-yl)benzoyl)piperidin-4-yl)carbamoyl)phenyl)-6H-thieno[3,2-f][1,2,4]triazolo[4,3-a][1,4]diazepin-6-yl)acetate] | 97.6 | 1 | – | – | – | –
CCC(=O)N1c2ccccc2[C@H](Nc2ccc(NC(=O)CCCC(=O)Nc3ccc(Cn4c(C(=O)OCCN(C)C)cc5c4CCCC5=O)cc3)cc2)C[C@@H]1C [Compound 15a, 2-(Dimethylamino)ethyl 1-(4-(5-((4-(((2S,4R)-2-methyl-1-propionyl-1,2,3,4-tetrahydroquinolin-4-yl)amino)phenyl)amino)-5-oxopentanamide)benzyl)-4-oxo-4,5,6,7-tetrahydro-1H-indole-2-carboxylate] | – | – | 97.6 | 0.28 | 0.34 | –
CCC(=O)N1c2ccccc2[C@H](Nc2ccc(-c3cnn(CCNC(=O)c4ccc(Cn5c(C(=O)OCCN(C)C)cc6c5CCCC6=O)cc4)c3)cc2)C[C@@H]1C [Compound 15d, 2-(Dimethylamino)ethyl 1-(4-((2-(4-(4-(((2S,4R)-2-methyl-1-propionyl-1,2,3,4-tetrahydroquinolin-4-yl)amino)phenyl)-1H-pyrazol-1-yl)ethyl)carbamoyl)benzyl)-4-oxo-4,5,6,7-tetrahydro-1H-indole-2-carboxylate] | 96.9 | 0.11 | – | – | – | –
CCC(=O)N1c2ccccc2[C@H](Nc2ccc(-n3cc(CNC(=O)c4ccc(Cn5c(CC)cc6c5CCCC6=O)cc4)nn3)cc2)C[C@@H]1C [Compound 15f, 4-((2-Ethyl-4-oxo-4,5,6,7-tetrahydro-1H-indol-1-yl)methyl)-N-((1-(4-(((2S,4R)-2-methyl-1-propionyl-1,2,3,4-tetrahydroquinolin-4-yl)amino)phenyl)-1H-1,2,3-triazol-4-yl)methyl)benzamide] | 97.2 | 0.03 | – | – | – | –
CCC(=O)N1c2ccccc2[C@H](Nc2ccc(NC(=O)CCCC(=O)Nc3cccc(Oc4ccc(NS(=O)(=O)CC)cc4-c4cn(C)c(=O)cc4OC)c3)cc2)C[C@@H]1C [Compound 16j, N^1-(3-(4-(Ethylsulfonamide)-2-(4-methoxy-1-methyl-6-oxo-1,6-dihydropyridin-3-yl)phenoxy)phenyl)-N5-(4-(((2S,4R)-2-methyl-1-propionyl-1,2,3,4-tetrahydroquinolin-4-yl)amino)phenyl)glutaramide] | – | – | 92.4 | 0.5 | 3.09 | –
CCC(=O)N1c2ccccc2[C@H](Nc2ccc(NC(=O)CCCC(=O)Nc3cccc(Oc4ccccc4-c4cn(C)c(=O)cc4OC)c3)cc2)C[C@@H]1C [Compound 16m, N^1-(3-(2-(4-Methoxy-1-methyl-6-oxo-1,6-dihydropyridin-3-yl)phenoxy)phenyl)-N5-(4-(((2S,4R)-2-methyl-1-propionyl-1,2,3,4-tetrahydroquinolin-4-yl)amino)phenyl)glutaramide] | 97.1 | 0.62 | – | – | – | 1.85
CCC(=O)N1c2ccccc2[C@H](Nc2ccc(NC(=O)CCCC(=O)Nc3ccc(C(=O)N4CCC(=O)Nc5ccccc54)cc3)cc2)C[C@@H]1C [Compound 16o, N^1-(4-(((2S,4R)-2-Methyl-1-propionyl-1,2,3,4-tetrahydroquinolin-4-yl)amino)phenyl)-N5-(4-(4-oxo-2,3,4,5-tetra hydro-1H-benzo[b][1,4]diazepine-1-carbonyl)phenyl)glutaramide] | 79.1 | 24.8 | – | – | – | 80.3
CCC(=O)N1c2ccccc2[C@H](Nc2ccc(NC(=O)CCCC(=O)NC3CCC(Cn4cc(-c5c(C)noc5C)ccc4=O)CC3)cc2)C[C@@H]1C (stereo partly drawn) [Compound 16p, N^1-((1r,4r)-4-((5-(3,5-Dimethylisoxazol-4-yl)-2-oxopyridin-1(2H)-yl)methyl)cyclohexyl)-N5-(4-(((2S,4R)-2-methyl-1-propionyl-1,2,3,4-tetrahydroquinolin-4-yl)amino)phenyl)glutaramide] | – | – | 96.2 | 0.27 | 0.63 | –
CCC(=O)N1c2ccccc2[C@H](Nc2ccc(NC(=O)CCCC(=O)Nc3ccc(Cn4cc(-c5c(C)noc5C)ccc4=O)cc3)cc2)C[C@@H]1C [Compound 17a, N^1-(4-((5-(3,5-Dimethylisoxazol-4-yl)-2-oxopyridin-1(2H)-yl)methyl)phenyl)-N5-(4-(((2S,4R)-2-methyl-1-propionyl-1,2,3,4-tetrahydroquinolin-4-yl)amino)phenyl)glutaramide] | 96.2 | 0.1 | – | – | – | 0.16
CCNC(=O)C[C@@H]1N=C(c2ccc(SCCCCSc3ccc(C4=N[C@@H](CC(=O)NCC)c5nnc(C)n5-c5ccc(OC)cc54)cc3)cc2)c2cc(OC)ccc2-n2c(C)nnc21 [compound 1, 2,2′-((4S,4'S)-6,6′-((butane-1,4-diylbis(sulfanediyl))bis(4,1-phenylene))bis(8-methoxy-1-methyl-4H-benzo[f][1,2,4]triazolo[4,3-a][1,4]diazepine-6,4-diyl))bis(N-ethylacetamide), reference compound] | – | – | 61.7 | 221 | 2560 | –
Cc1sc2c(c1C)C(c1ccc(Cl)cc1)=N[C@@H](CC(=O)NCCOCCOCCOCCOCCOCCOCCOCCNC(=O)C[C@@H]1N=C(c3ccc(Cl)cc3)c3c(sc(C)c3C)-n3c(C)nnc31)c1nnc(C)n1-2 [compound 2, reference compound] | – | – | 57.7 | 235 | > 10000 | –
